From paper PMC3758303 (PLoS ONE, 2013) come the findings set out here.

The nature of data set [1]: WST-1 cell proliferation assay, sOR cells. The data set is classed as cell-based. Particulars: human. How it is done:
(§1) The WST-1 cell proliferation assay was performed as described previously. Briefly, The cells were plated onto 96-well plates (1×10^3 cells per well) in triplicate and then treated with each reagent at several concentrations for 72 hrs. After treatment, the cells were subjected to the WST-1 cell proliferation assay (Takara Bio, Otsu, Japan) according to the manufacturer’s protocol. This assay is based on the enzymatic cleavage of the tetrazolium salt WST-1 to formazan by cellular mitochondrial dehydrogenases present in viable cells. Therefore, there are […] the value of the WST-1 assay becomes zero. The experiments were performed at least in triplicate. From the assay results, the 50% cytotoxic concentration (CC50) of each reagent was determined.
(In general: Tetrazolium assays rely on reduction of a dye to a coloured formazan, in cell work by metabolically active cells.)

For data set [2], the system named is genome-length HCV-RNA (1B-4 strain of genotype 1b) replication in HuH-7-derived 1B-4R cells. Briefly: 1B-4R RL assay. The data set is classed as cell-based. Particulars: Hepatitis C virus, 1B-4R assay, HuH-7, HCV strain 1B-4, 72 hrs. The method, then:
(§2) RSc and D7 cells were derived from the cell lines HuH-7 and Li23, respectively, were cultured as described previously, [29]. HuH-7-derived OR6 [13], AH1R [30], and 1B-4R [Ikeda et al., submitted] cells harboring genome-length HCV-RNA and HuH-7-derived polyclonal sOR [31], and RSc-JRN/35B [Ikeda et al., submitted] cells harboring an HCV subgenomic replicon were cultured with medium in the presence of G418 (0.3 mg/ml; Geneticin, Invitrogen, Carlsbad, CA) as described previously. Li23-derived ORL8 [20], ORL11 [20], 1B-4RL [Ikeda et al., submitted], and KAH5RL [Ikeda et al., submitted] cells harboring genome-length HCV-RNA were maintained with medium in the presence of G418 (0.3 mg/ml) as described previously. Li23-derived polyclonal sORL8 and sORL11 cells harboring an HCV replicon, which were established by the transfection of ORN/3-5B/QR,KE,SR RNA into the cured OL8 and OL11 cells, respectively, were also cultured with medium in the presence of G418 (0.3 mg/ml) as described previously. Cured cells, from which the HCV-RNA had been eliminated by IFN treatment, were also maintained with medium in the absence of G418 as described previously. […] Therefore, when HCV-RNA is excluded from the cells or when its level is decreased, the cells are killed in the presence of G418. […]
(§3) The SI value of each reagent was determined by dividing the CC50 value by the EC50 value.

Data set [3] deals with genome-length HCV-RNA (AH1 strain of genotype 1b) replication in HuH-7-derived AH1R cells. Briefly: AH1R RL assay. The data set is classed as cell-based. Particulars: Hepatitis C virus, HuH-7, HCV strain AH1, 72 hrs. The method, then:
as §2, §3

Data set [4] deals with HCV-RNA replication in ORL8 cells. Briefly: Combination with IFN-α and/or RBV, ORL8 RL assay. Type of data set: cell-based, hepatitis C virus. As to conditions: 72 hrs; for anti-HCV effect in combination with IFN-α: IFN-α more than 4 IU/ml. The text has this:
(§4) We examined the anti-HCV activity of N-89 or N-251 in combination with IFN-α using OR6 and ORL8 assay systems. […] However, such an effect was not clear in the OR6 assay (Fig. S4A). […] Therefore, we next examined the combination effect of RBV in the same way as IFN-α using an ORL8 assay. […] Therefore, we further examined the effect of N89 or N-251 in combination with both IFN-α and RBV using an ORL8 assay.
Figure 6 Synergistic anti-HCV effects of N-89 or N-251 in combination with IFN-α and/or RBV on HCV-RNA replication in ORL8 cells. […] ORL8 cells were treated with N-89 (upper panel) or N-251 (lower panel) in combination with IFN-α (A), RBV (B), or IFN-α and RBV (C) for 72 hrs and subjected to RL assay.

Data set [5] has as its system genome-length HCV-RNA (O strain of genotype 1b) replication in Li23-derived ORL8 cells. The experiment in a line: ORL8 RL assay. The data set is classed as cell-based, hepatitis C virus. Particulars: for EC50: Hepatitis C virus, Li23, HCV strain O, 72 hrs, RL assay. The method, then: RSc and D7 cells were derived from the cell lines HuH-7 and Li23, respectively, were cultured as described previously, [29]. HuH-7-derived OR6 [13], AH1R [30], and 1B-4R [Ikeda et al., submitted] cells harboring genome-length HCV-RNA and HuH-7-derived polyclonal sOR [31], and RSc-JRN/35B [Ikeda et al., submitted] cells harboring an HCV subgenomic replicon were cultured with medium in the presence of G418 (0.3 mg/ml; Geneticin, Invitrogen, Carlsbad, CA) as described previously. Li23-derived ORL8 [20], ORL11 [20], 1B-4RL [Ikeda et al., submitted], and KAH5RL [Ikeda et al., submitted] cells harboring genome-length HCV-RNA were maintained with medium in the presence of G418 (0.3 mg/ml) as described previously. Li23-derived polyclonal sORL8 and sORL11 cells harboring an HCV replicon, which were established by the transfection of ORN/3-5B/QR,KE,SR RNA into the cured OL8 and OL11 cells, respectively, were also cultured with medium in the presence of G418 (0.3 mg/ml) as described previously. […] Therefore, when HCV-RNA is excluded from the cells or when its level is decreased, the cells are killed in the presence of G418.
RL assay was performed as described previously, [24]. Briefly, the cells were plated onto 24-well plates (2×10^4 cells per well) in triplicate and then treated with each reagent at several concentrations for 72 hrs. After treatment, the cells were subjected to luciferase assay using the RL assay system (Promega, Madison, WI). The experiments were performed at least in triplicate. From the assay results, the 50% effective concentration (EC50) of each reagent was determined.
as §3

Data set [6] deals with HCV-RNA replication in OR6 cells. The experiment in a line: Combination with IFN-α and/or RBV, OR6 RL assay. Type of data set: cell-based, hepatitis C virus. As to conditions: 72 hrs.
Source text: as §4
Supplementary file pone.0072519.s004.tif: Figure S4 Anti-HCV effects of N-89 or N-251 in combination with IFN-α and/or RBV on HCV-RNA replication in OR6 cells. […] (A) Effect of N-89 or N-251 in combination with IFN-α on OR6 assay. OR6 cells were treated with N-89 (upper panel) or N-251 (lower panel) in combination with IFN-α for 72 hrs and subjected to RL assay. (B) Effect of N-89 or N-251 in combination with RBV on OR6 assay. OR6 cells were treated with N-89 (upper panel) or N-251 (lower panel) in combination with RBV for 72 hrs and subjected to RL assay. (C) Effect of N-89 or N-251 in combination with IFN-α and RBV on OR6 assay. OR6 cells were treated with N-89 (upper panel) or N-251 (lower panel) in combination with IFN-α and RBV for 72 hrs and subjected to RL assay. (TIF) Click here for additional data file.

A short description of data set [7]: WST-1 cell proliferation assay, sORL8 cells. Type of data set: cell-based. As to conditions: human. How it is done:
as §1

Usually CC50 stands for the concentration giving 50% cytotoxicity. Low readings indicate harm at low concentration, high ones better tolerance by the cells. By EC50 is commonly meant the midpoint of the concentration-response curve. A high value points to a less potent agent. On to `C1CCCCCC2(CCCCC1)OOCCCOO2` [N-89, 1,2,6,7-Tetraoxaspiro[7.11]nonadecane], for which the CC50 at 72 h was found to be 1700 nM in data set [1] and 1100 nM in data set [7]. In addition, the EC50 was 420 nM in data set [2], 25 nM in data set [3] and 89 nM in data set [5] (ORL8 assay). Also, the figures for the “anti-HCV effect in combination with RBV” value in data set [4] and in data set [6] were “synergistic effect” and “additive anti-HCV effect”, respectively. The “anti-HCV effect in combination with both IFN-α and RBV” value in data set [4] is “synergistically enhanced”. In addition, the “anti-HCV effect in combination with IFN-α” value is given as “synergistic effect” in data set [4] and “not clear” in data set [6]. Besides, the “anti-HCV activity (suppression)” value in data set [5] (1 µM in ORL8 cells, without a decrease in cell viability) is greater than 99%. In addition, the EC99 value in data set [5] (ORL8 assay) is 1 µM.
Regarding `OCCCCCCC1COOC2(CCCCCCCCCCC2)OOC1` [N-251, 6-(1,2,6,7-tetraoxaspiro[7.11]nonadec-4-yl)hexan-1-ol], the CC50 at 72 h amounted to 2200 nM in data set [1] and 4100 nM in data set [7]. Also, the EC50 came to 980 nM in data set [2], 140 nM in data set [3] and 100 nM in data set [5] (ORL8 assay). The “anti-HCV effect in combination with RBV” value in data set [4] is reported as “synergistic effect”; in data set [6], “additive anti-HCV effect”. Also, the “anti-HCV effect in combination with both IFN-α and RBV” value in data set [4] is “synergistically enhanced”. Moreover, the “anti-HCV effect in combination with IFN-α” value in data set [4] is “synergistic effect”; in data set [6], “not clear”.
